Test results taken from US20230035127A1, “CULTURE AND DIFFERENTIATION OF PLURIPOTENT STEM CELLS” (University of Maryland, College Park, priority 2021, published 2023).
Values joined by “and” are separate entries in the source; they are usually repeats but may differ in a detail not shown here. Identical values can stand only once. “Also recorded” adds a separate entry of the source.

Legend:
[1] = test system: eiPSC-derived cardiac spheroids; assay: Immunostaining of cryosectioned eiPSC-derived cardiac spheroids; format: cell-based, human; conditions: cardiac spheroids day 12.5
Procedure: The iPSC spheroids and the iPSC-derived Cardiac spheroids were fixed in 4% PFA in 1×PBS at 4° C. overnight. The fixed spheroids were incubated sequentially in 10% and 15% sucrose solutions in saline for 4 h, respectively. Afterward, the spheroids were put in a plastic box and embedded in OCT for cryosectioning. Slices of the spheroids of 10 μm thick were obtained by cutting the frozen sample on a Leica cryostat platform and then immediately attached onto the Leica Apex high adhesive glass slides.
For immunostaining, the slides were gently rinsed twice with 1×PBS to remove the OCT and then incubated with 0.1% Tween-20 and 5% normal goat serum in 1×PBS for 1 h at room temperature (RT) to block non-specific bindings. Later, the samples were incubated with primary antibodies at 4° C. overnight. The dilution and product information of the primary antibodies were as follows: OCT-4 (1:500 dilution, Cell Signaling Technologies), NANOG (1:500 dilution, Cell Signaling Technologies), SSEA-4 (1:500 dilution, Cell Signaling Technologies), cTnT (1:500 dilution, Cell Signaling Technologies), CONNEXIN-43 (CX-43, 1:400 dilution, Santa Cruz Biotechnology), DESMIN (1:500 dilution, Santa Cruz Biotechnology), α-ACTININ (1:500 dilution; Santa Cruz Biotechnology), BRACHYURY (1:500; Santa Cruz Biotechnology), NKX2.5 (1:500; Santa Cruz Biotechnology), NESTIN (1:500; R & D Systems), MUSASHI-1 (1:500; R & D Systems), and TUJ-1 (1:500; R & D Systems). Afterward, the samples were rinsed with 1×PBS thrice and then incubated with the associated secondary antibodies (goat anti-rabbit IgG FITC and goat-anti-mouse IgG PE, Invitrogen) in 1×PBS for 1.5 h at RT. Lastly, the samples were rinsed with 1 ml of 1×PBS for 3 min and the nuclei were stained with 1 μg/ml DAPI solution for 5 min at RT. The samples were imaged with the Zeiss LSM 710 microscope.

[2] = test system: eiPSC-derived cardiac spheroids; assay: Re-plating of cardiac spheroids in regular cell culture petri dish (attachment); format: cell-based, human; conditions: day 13.5 spheroids, 3 days after re-plating
Procedure: After 3 days, ˜61% of the cardiac spheroids in the 10 μM RI group attached to the 2D surface, and some of the cells migrated out of the spheroids appeared to be neuron-like with neurite-like processes (FIG. 4B-C). […] To confirm the aforementioned observation of neuron-like cells in the 10 μM RI group, immunofluorescence staining of cryosectioned cardiac spheroids on day 12.5 in the 1 and 10 μM RI groups was conducted. […] Therefore, studies were performed to further understand the mechanisms of the improved cardiac differentiation with the reduced RI.

human eiPSCs [3] = assay: Flow cytometry of protein markers in eiPSC spheroids and cardiac spheroids; format: cell-based
Procedure: For flow cytometry, the eiPSC spheroids were collected on day 0 and the cardiac spheroids were collected on days 1.5, 2.5, 12.5, 15. The spheroids were dissociated to single cells by 0.25% trypsin for 5 min at 37° C. and then fixed with 75% ethanol at 4° C. overnight. The cells were permeabilized with 0.05% Triton X-100 for 3 min and then rinsed with 1×PBS twice. The cell numbers were adjusted to 1×10^6 cells/tube in 700 μL of saline for each marker. These cells were incubated with primary antibodies including OCT-4 (1:500 dilution, Cell Signaling Technologies), NANOG (1:500 dilution, Cell Signaling Technologies), SSEA-4 (1:500 dilution, Cell Signaling Technologies), BRACHYURY (1:500; Santa Cruz Biotechnology), NKX2.5 (1:500; Santa Cruz Biotechnology), cTnT (1:500 dilution, Cell Signaling Technologies), cTnI (1:500 dilution, Cell Signaling Technologies), α-ACTININ (1:500 dilution; Santa Cruz Biotechnology), MUSASHI-1 (1:500; R&D Systems), and TUJ-1 (1:500; R&D Systems) at 4° C. overnight. Subsequently, the samples were rinsed with 1×PBS thrice before incubation with corresponding secondary antibodies: goat anti-mouse IgG FITC and goat anti-rabbit IgG PE, respectively (1:1000; Invitrogen) for 1 h at RT. The samples were then rinsed with 1×PBS thrice before flow cytometry. The negative controls were the cells incubated with respective primary antibodies as aforementioned (no incubation with a secondary antibody).

human eiPSCs [4] = assay: 2D re-plating of 3D iPSC spheroids on Matrigel (colony morphology, immunostaining); format: cell-based; conditions: day 0 spheroids cultured 2 days in 2D
Procedure: To further confirm the aforementioned difference in morphology and protein expression between the 1 and 10 μM RI groups, the 3D iPSC spheroids obtained with 0, 1, and 10 μM RI concentrations collected on day 0 (i.e., after 4-day culture in 3D) were plated on the 2D surface coated with Matrigel in Petri dish (i.e., under conventional 2D culture) and cultured for 2 days to observe the cell morphology.

C[C@@H](N)[C@H]1CC[C@H](C(=O)Nc2ccncc2)CC1.Cl.Cl (relative stereo) [RI, (+)-(R)-trans-4-(1-aminoethyl)-N-(4-pyridyl) cyclo-hexanecarboxamide dihydrochloride] was tested, and the “cells positive for WNT4 and CD44” value ([1]; 1 μM RI) was “not the 1 μM RI group”, the “expression of cTnT and CONNEXIN-43 (CX-43)” value ([1]; 1 μM RI) was “highly expressed” and the “staining of neural lineage markers TUJ-1 and MUSASHI-1” value ([1]; 1 μM RI) was “no evident staining”. The “cells positive for WNT4 and CD44” value ([1]; 10 μM RI) was “positive”, the “expression of cTnT and CONNEXIN-43 (CX-43)” value ([1]; 10 μM RI) was “either weak (for cTnT) or barely visible (for CX-43)” and the “staining of neural lineage markers TUJ-1 and MUSASHI-1” value ([1]; 10 μM RI) was “positive”. The “percentage of cardiac spheroids attached to the 2D surface” value ([2]; 5 μM RI) was roughly 41%, the “percentage of cardiac spheroids attached to the 2D surface” value ([2]; 10 μM RI, dihydrochloride) was ~61% and > 60% and the “expression of pluripotency markers OCT-4, NANOG, SSEA-4” value (human eiPSCs [3]; 1 μM RI group versus 10 μM RI group, day 0) was “significantly higher”. The “expression of neural-specific protein markers MUSASHI-1 and TUJ-1” value (human eiPSCs [3]; 1 μM RI, cardiac spheroids day 12.5, dihydrochloride) was “negligible; also recorded: negative”, the BRACHYURY-positive cells (human eiPSCs [3]; 1 μM RI, day 1.5, after CHIR99021 and BIO for 1 day) was roughly 100% and the NKX2.5 expression (human eiPSCs [3]; 1 μM RI, day 2.5, after XAV939 and KY02111) was roughly 100%. The cTnI-positive cells (human eiPSCs [3]; 1 μM RI, day 12.5) was 93.9%, the “cells positive for sarcomere-related proteins including α-ACTININ and cTnI” value (human eiPSCs [3]; 1 μM RI, day 12.5) was “more than 90%” and the α-ACTININ-positive cells (human eiPSCs [3]; 1 μM RI, day 12.5) was 95%. For the same compound, the “expression of ectoderm marker NESTIN” value (human eiPSCs [3]; 1 μM RI, eiPSC spheroids day 0) was “negligible”, the “expression of ectoderm marker NESTIN” value (human eiPSCs [3]; 10 μM RI, eiPSC spheroids after four-day culture (day 0)) was 73.1% and the “percentage of cTnT-positive cells and mean intensity of cTnT fluorescence staining” value (human eiPSCs [3]; RI from 1 to 5 to 10 μM, cardiac spheroids day 15, dihydrochloride) was “decreased with the increase of the RI concentration; also recorded: decreases as the RI treatment concentration increases”. The “immunostaining of neural and pluripotency markers in re-plated colonies” value (human eiPSCs [4]; 1 μM RI) was “positive expression of OCT-4 and NANOG and were negative for NESTIN and TUJ-1”, the “morphology of re-plated eiPSC colonies” value (human eiPSCs [4]; 1 μM RI) was “typical with tightly packed cells” and the “immunostaining of neural and pluripotency markers in re-plated colonies” value (human eiPSCs [4]; 10 μM RI) was “positive staining of neural markers (NESTIN and TUJ-1) and weakened/no staining of pluripotency markers (OCT-4 and NANOG)”. The “morphology of re-plated eiPSC colonies” value (human eiPSCs [4]; 10 μM RI) was “more loosely packed”.
